This note sets out measurements from patent publication US8303999B2, “Natural extract containing xanthohumol, method for the production thereof and products produced therefrom” (Ta-Xan AG, priority 2004, dated 2012).

The structures appear in SMILES notation. In brackets after ≈: the same amount, converted by molar mass. Read-outs that look alike come from different tables or passages of the source.

This data set in a line: solubility limit of XN in aqueous solution (water). As to conditions: read-out: solubility limit of XN in typical aqueous solutions. The class given is physicochemical. On the procedure:
For producing roasted extract comprising XN a hot aqueous extract of the ground roasted products e.g. of barley, wheat, rye as well as the corresponding malts, coffee beans or cacao beans is prepared. A hop extract comprising XN is added thereto at the beginning of the heating period. The extraction of xanthohumol in the extractions of the roasted products leads to a XN content which is by far higher than the solubility limit of XN in typical aqueous solutions. This amounts to 1.3 mg/l of XN at a water temperature of 23° C. and to 1.1 mg/l of XN at a water temperature of 8° C.

For `COc1cc(O)c(CC=C(C)C)c(O)c1C(=O)/C=C/c1ccc(O)cc1` [XN, xanthohumol], the solubility by setting is: (water temperature of 8° C.) 1.1 µg/mL (≈ 3.1 µM); (water temperature of 23° C.) 1.3 µg/mL (≈ 3.67 µM).
